# Publication PMC12586182 (Frontiers in Oncology, 2025)
# Key:
# activated B-RAF = activated B-RAF (Homo sapiens, UniProt P15056); assay: Surface plasmon resonance binding (Biacore 1S+); conditions: SPR, B-RAF
# [1] = target: biotinylated, inactive MEK1 (Homo sapiens, UniProt Q02750); assay: Surface plasmon resonance binding (Biacore 1S+); conditions: SPR
# Sequence of biotinylated, inactive MEK1 (Q02750 whole entry): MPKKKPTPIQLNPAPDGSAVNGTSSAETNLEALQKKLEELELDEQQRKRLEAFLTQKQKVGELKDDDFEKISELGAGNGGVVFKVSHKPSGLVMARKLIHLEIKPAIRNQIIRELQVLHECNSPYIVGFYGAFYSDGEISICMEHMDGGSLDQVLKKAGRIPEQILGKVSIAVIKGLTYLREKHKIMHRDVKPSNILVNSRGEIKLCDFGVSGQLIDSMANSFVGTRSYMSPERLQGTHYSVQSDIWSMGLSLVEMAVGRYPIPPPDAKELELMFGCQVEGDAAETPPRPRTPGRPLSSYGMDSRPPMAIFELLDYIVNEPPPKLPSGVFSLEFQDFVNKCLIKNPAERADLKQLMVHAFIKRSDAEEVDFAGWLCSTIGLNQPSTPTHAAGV
# Sequence of activated B-RAF (P15056 whole entry): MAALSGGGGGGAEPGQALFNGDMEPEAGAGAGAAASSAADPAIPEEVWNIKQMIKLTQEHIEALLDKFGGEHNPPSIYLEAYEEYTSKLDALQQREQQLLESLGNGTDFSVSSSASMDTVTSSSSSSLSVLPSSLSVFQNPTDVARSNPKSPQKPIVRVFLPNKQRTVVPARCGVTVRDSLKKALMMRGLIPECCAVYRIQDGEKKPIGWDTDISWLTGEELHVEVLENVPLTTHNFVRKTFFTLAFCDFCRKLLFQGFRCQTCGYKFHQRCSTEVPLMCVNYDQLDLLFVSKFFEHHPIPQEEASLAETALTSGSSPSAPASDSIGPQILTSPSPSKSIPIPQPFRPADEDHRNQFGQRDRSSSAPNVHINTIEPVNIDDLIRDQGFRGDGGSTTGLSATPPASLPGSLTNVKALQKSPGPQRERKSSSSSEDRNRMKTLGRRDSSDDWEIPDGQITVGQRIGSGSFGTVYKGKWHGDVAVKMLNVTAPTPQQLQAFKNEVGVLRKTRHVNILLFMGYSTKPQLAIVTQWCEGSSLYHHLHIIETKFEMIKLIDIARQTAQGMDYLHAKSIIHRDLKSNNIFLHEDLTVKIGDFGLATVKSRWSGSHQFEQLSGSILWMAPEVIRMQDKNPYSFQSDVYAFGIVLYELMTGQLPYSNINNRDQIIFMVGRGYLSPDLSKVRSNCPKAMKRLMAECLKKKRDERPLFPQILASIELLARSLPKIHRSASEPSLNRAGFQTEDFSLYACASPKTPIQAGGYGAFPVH
log (kd) (activated B-RAF),log(ka) (activated B-RAF),t1/2 (activated B-RAF) [h],log (kd) [1],log(ka) [1],t1/2 [1] [h],SMILES
-4.40,5.36,4.8056,–,–,–,COC(=O)N[C@@H](C)CNc1nccc(-c2cn(C(C)C)nc2-c2cc(Cl)cc(NS(C)(=O)=O)c2F)n1 [encorafenib]
–,–,–,-3.87,5.34,1.428,CC(=O)Nc1cccc(-n2c(=O)n(C3CC3)c(=O)c3c(Nc4ccc(I)cc4F)n(C)c(=O)c(C)c32)c1 [trametinib]
